Measurements taken from patent publication US20240335404A1, “SUBSTITUTED ESTERS CONTAINING POLYOLS AND SACCHARIDES FOR TREATING HEPATOTOXICITY AND FATTY LIVER DISEASES” (SINEW PHARMA INC., priority 2015, published 2024).

Tests used:
[1] = Pro-drug hydrolysis in fresh human whole-blood (in vitro); assay type: in vitro ADME; settings: 37° C., up to 24 hrs (FIG. 1)
Description: Fresh human whole-blood were used for drug hydrolysis studies. Drug (10 mg, compound F) was dissolved in 1 mL solution (20% methanol). Drug hydrolysis (n=3) was performed in 20 mL of fresh whole-blood aliquots containing 1.0 mg of drug in a 50-mL flask thermostat at 37° C. in a shaking water bath. At time 0, the drug was added, and after various times of incubation, the blood samples were collected at […], 0.75, 1, 2, 4, 6, 12 and 24 hrs. Blood sample were used 1 mL acetonitrile to quench the enzymatic hydrolysis of the drug as samples were obtained. […] The ESI interface was used in the negative-ion mode.
The pro-drug was monitored at a transition of m/z 688.9∂→180.9, Sucralose was monitored at a transition of m/z 395→359; mannitol was monitored at a transition of m/z 452.3→273.3; C6-mannitol was monitored at a transition of m/z 309→101.1. All the compounds were identified by high-resolution mass spectrophotometry and ^13C NMR. The structure of C6-mannitol (formula (2)) is as follows: […]
The hydrolysis of pro-drug in blood was expressed by plotting the percentage of Pro-drug remaining and the percentage of sucralose, mannitol and C6-mannitol increasing versus time after incubation of the pro-drug in blood (FIG. 1).

[2] = molecular target: CYP2E1 (Homo sapiens, UniProt P05181); test: CYP2E1 inhibitory activity assay in human liver microsomes (CZX to 6-OH-CZX)
Sequence of CYP2E1 (P05181 whole entry): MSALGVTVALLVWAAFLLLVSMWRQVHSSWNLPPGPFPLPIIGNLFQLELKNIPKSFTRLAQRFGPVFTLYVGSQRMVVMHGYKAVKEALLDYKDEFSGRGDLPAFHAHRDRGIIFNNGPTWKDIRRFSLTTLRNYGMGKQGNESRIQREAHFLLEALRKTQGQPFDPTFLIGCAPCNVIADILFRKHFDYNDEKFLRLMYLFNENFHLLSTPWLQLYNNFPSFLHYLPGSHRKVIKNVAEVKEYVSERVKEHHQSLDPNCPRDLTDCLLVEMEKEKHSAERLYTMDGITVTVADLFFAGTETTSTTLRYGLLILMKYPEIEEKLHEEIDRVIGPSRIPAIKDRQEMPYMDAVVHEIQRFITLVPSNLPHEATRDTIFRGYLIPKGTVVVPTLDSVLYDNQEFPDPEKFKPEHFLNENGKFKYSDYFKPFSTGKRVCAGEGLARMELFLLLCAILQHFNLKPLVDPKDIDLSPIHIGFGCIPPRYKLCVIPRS
Description: After addition of the test sample, the amount of CYP450 isozyme metabolite standard 6-OH-CZX (6-Hydroxy-Chlorzoxazone) is specific used for calculation of the CYP450 isozyme (CYP2E1) inhibition ratio of the test sample by using the amount of 6-OH-CZX of the control group as the baseline.
All samples were tested in triplicate. To determine the percentage inhibition, each test compound was dissolved in 1, 2, 4 μg/mL to three different concentrations. The CYP2E1 activity levels in the presence of the test compounds were compared with the control incubations. The 500-μL reaction mixture, containing 0.5 mg of microsomal protein, was incubated with 320 μM CZX in the presence of 5 mM MgCl2 and 1 mM NADPH in 50 mM phosphate buffer with pH 7.4 at 37° C. for 30 min. The reaction was terminated by ice-cold acetonitrile, and then 4-hydroxyl tolbutamide was added as an internal standard. The organic phase was evaporated to dryness and reconstituted into the mobile phase (methanol:water=1:1) prior to liquid chromatography-tandem mass spectrometry (LC-MS/MS) analysis. An API 3000 triple-quadrupole mass spectrometer equipped with an ion-spray (ESI) source was used to determine 6-OH-CZX in the human liver microsomes. The ESI interface was used in the positive-ion mode. The 6-OH-CZX was monitored at a transition of m/z 284.5→185.9.
The CYP450 isozyme activity levels in the presence of the test compounds were compared with the control incubations.

In the case of `O=C(CCCCC(=O)OC[C@@H](O)[C@@H](O)[C@H](O)[C@H](O)CO)OCC1O[C@H](O[C@]2(CCl)OC(CCl)C(O)C2O)C(O)C(O)[C@H]1Cl` (stereo in doubt) [Compound F, ((2R,3R,4R,5R,6R)-6-(((2R,5R)-2,5-bis(chloromethyl)-3,4-dihydroxytetrahydrofuran-2-yl)oxy)-3-chloro-4,5-dihydroxytetrahydro-2H-pyran-2-yl)methyl ((2R,3R,4R)-2,3,4,5,6-pentahydroxyhexyl) adipate], the “percentage of pro-drug remaining and metabolites formed in blood” value [1] is reported as “turns into its metabolites including sucralose, mannitol and C6-mannitol”, the “P450 2E1 inhibitor activity” value [2] is reported as “effective as P450 2E1 inhibitors” and the “CYP 2E1 inhibition ratio (%)” value ([2]; 1 μg/mL) is reported as 17.7 ± 0.7%. The “CYP 2E1 inhibition ratio (%)” value ([2]; 2 μg/mL) was 33.3 ± 4.1% and the “CYP 2E1 inhibition ratio (%)” value ([2]; 4 μg/mL) was 45.7 ± 2.5%.
